The values below come from patent US20120245135A1, “Gallium Complexes, Pharmaceutical Compositions And Methods Of Use” (Genta Incorporated, priority 2011, published 2012).

The series can be described thus: Oral bioavailability of gallium complexes in dogs (plasma gallium by ICP-MS). The settings on record: for maximum blood concentration of gallium achieved / blood levels of gallium reached (peak blood concentration of gallium): 2.5 mg/kg; for blood levels of gallium reached by oral controls: oral positive control (all three dogs) and oral negative control (highest value, one animal), Beagle dogs. The protocol:
Pharmacokinetics, oral bioavailability and bioequivalency of gallium-ligand complexes according to the invention were determined in dogs following a single oral gavage administration of the compounds as a suspension/solution in water in fasted male Beagle dogs at 2.5 mg/kg dog body weight or following administration of a single total dose of 30 mg in a capsule formulation (for histidine and carnosine only). The following complexes were selected for testing: gallium picolinate, gallium kojate, gallium (+)-mandalate, gallium (−)-mandalate, gallium tryptophanate, gallium acetyl piperidinate, gallium prolinate both neutral and ionic; and the capsules prepared from histidine and carnosine. Each compound was studied in groups of three fasted animals. Nine serial blood samples were collected from each animal by venipuncture of a jugular vein at the following time points post-dose: 0 (predose), 0.25, 0.5, 0.75, 1, 2, 4, 8, and 16 hours post-dose. Blood samples were collected into chilled tubes containing heparin as the anticoagulant.
Oral bioavailability of the test gallium complex was evaluated in each of the three animals in each test group.

Setting [1] is: single oral gavage, suspension/solution in water, fasted male Beagle dogs.

For `N[C@@H](Cc1c[nH]c2ccccc12)C(=O)[O-].N[C@@H](Cc1c[nH]c2ccccc12)C(=O)[O-].N[C@@H](Cc1c[nH]c2ccccc12)C(=O)[O-].[Ga+3]` [gallium tryptophanate complex], the “maximum blood concentration of gallium achieved” value (shortened to “maximum blood concentration”) under setting [1] is listed as “about 500 ng/ml”.
On to `O=C1[O][Ga-3]23([O]C(=O)c4cccc[n+]42)([O]C(=O)c2cccc[n+]23)[n+]2ccccc21` [gallium picolinate], for which, for the setting “male, Beagle, dog, in vivo, po”, the “blood levels of gallium reached (peak blood concentration of gallium)” value is on record as “at least 1,000 ng/ml”.
`O=C([O-])C1CCCN1.O=C([O-])C1CCCN1.O=C([O-])C1CCCN1.[Ga+3]` (stereo not drawn) [gallium prolinate neutral complex]: the “maximum blood concentration” value under setting [1] is reported as “about 300 ng/ml”.
For the compound `Cc1occc(=O)c1[O-].Cc1occc(=O)c1[O-].Cc1occc(=O)c1[O-].[Ga+3]` [gallium maltolate, reference compound], the “blood levels of gallium reached by oral controls” value is ≥ 1,000 ng/ml.
For `O=C1[O][Ga-3]23([O]C(=O)[C@H](c4ccccc4)[OH+]2)([O]C(=O)[C@H](c2ccccc2)[OH+]3)[OH+]C1c1ccccc1` (stereo partly drawn) [gallium (+)-mandalate], the “blood levels of gallium reached (peak blood concentration of gallium)” value (male, Beagle, dog, in vivo, po) was “at least 1,000 ng/ml”.
With `CC1=[O+][Ga-3]23([O]C(=O)C4CCCCN14)([O]C(=O)C1CCCCN1C(C)=[O+]2)[O]C(=O)C1CCCCN1C(C)=[O+]3` (stereo not drawn) [gallium acetyl piperidinate complex], the “maximum blood concentration” value (male, Beagle, dog, in vivo, po) is reported as “about 200 ng/ml”.
With `OCC1=CC2=[O+][Ga-3]34([O]C2=CO1)([O]C1=COC(CO)=CC1=[O+]3)[O]C1=COC(CO)=CC1=[O+]4` [gallium kojate], the “blood levels of gallium reached (peak blood concentration of gallium)” value (male, Beagle, dog, in vivo, po) is reported as “at least 1,000 ng/ml”.
For `O=C1[O][Ga-3]23([O]C(=O)[C@@H](c4ccccc4)[OH+]2)([O]C(=O)[C@@H](c2ccccc2)[OH+]3)[OH+]C1c1ccccc1` (stereo partly drawn) [gallium (−)-mandalate], the “blood levels of gallium reached (peak blood concentration of gallium)” value (male, Beagle, dog, in vivo, po) is “at least 1,000 ng/ml”.
Turning to `O=[N+]([O-])[O-].O=[N+]([O-])[O-].O=[N+]([O-])[O-].[Ga+3]` [gallium nitrate, reference compound], the “blood levels of gallium reached by oral controls” value is at most 700 ng/mL.
